In patent US7696166B2, “Use of cyclosporin alkyne/alkene analogues for preventing or treating viral-induced disorders” (Albany Molecular Research, Inc., priority 2006, dated 2010):
Converted amounts (≈) assume the structure as drawn. “Also recorded” adds a separate entry of the source.

Key:
[1] = system: HIV-1; settings: literature reports, background; cited from earlier work
[2] = system: hepatitis C virus; settings: Paeshuyse et al. 2005; cited from earlier work
[3] = target: cyclophilin A (Homo sapiens, UniProt P62937); settings: background; cited from earlier work
[4] = system: concanavalin A-stimulated murine splenocytes; experiment: Concanavalin A (ConA)-stimulated murine splenocyte assay; format: cell-based, BALB/c mice; settings: for IC50: novel cyclosporin alkyne analogue, ConA-stimulated murine splenocytes, [3H]thymidine incorporation
Method: Male BALB/c mice, at 5 to 7 weeks of age, were sacrificed by CO2 inhalation. Spleens were removed and dissociated by pushing through a nylon cell strainer. The splenocytes were washed in RPMI 1640/5% fetal calf serum (FCS) and pelleted at 400×g. Red blood cells were then lysed by resuspending the cell pellet in ACK lysis buffer (150 mM NH4Cl, 1 mM KHCO3, 0.1 mM EDTA, 3 mL per spleen) for 10 min at room temperature. After pelleting at 400×g, the cells were washed by resuspending in RPMI 1640/5% FCS and repelleting. The cell pellet was resuspended in RPMI 1640/5% FCS and again passed through a cell strainer to remove cell aggregates. The cells were then counted and adjusted to 2×10^6 cells/ml in RPMI 1640/10% FCS/50 μM 2-mercaptoethanol. Cell viability was assessed by Trypan blue staining. Cyclosporin A or the test compound and two micrograms of concanavalin A were added to the wells of a 96 well plate, prior to the addition of 2×10^5 splenocytes. The cells were cultured in a 37° C. CO2 incubator for 2 days and then pulsed with 1 μCi of [^3H]thymidine for 6 hours. Cells were harvested onto filtermats with a TomTec 96 well plate harvester and lysed with H2O. The filtermat and scintillation fluid were sealed in a plastic sleeve. [^3H]thymidine incorporation was measured with a Wallac Trilux plate counter. Initial screens were done at a fixed value of 100 ng/ml test compound. IC50s were calculated from 7 point concentration-response curves using GraphPad software.

[5] = cited from earlier work
[6] = system: calcineurin; settings: background; cited from earlier work

Sequence of cyclophilin A (P62937 whole entry): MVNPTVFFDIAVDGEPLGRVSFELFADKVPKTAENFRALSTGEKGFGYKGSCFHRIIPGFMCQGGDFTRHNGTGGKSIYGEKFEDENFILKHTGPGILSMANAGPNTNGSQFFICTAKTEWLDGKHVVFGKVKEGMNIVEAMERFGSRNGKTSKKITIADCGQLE

In the case of `C/C=C/C[C@@H](C)[C@@H](O)[C@H]1C(=O)N[C@@H](CC)C(=O)N(C)[C@H](C)C(=O)N(CC)[C@@H](C(C)C)C(=O)N[C@@H](C(C)C)C(=O)N(C)[C@@H](CC(C)C)C(=O)N[C@@H](C)C(=O)N[C@H](C)C(=O)N(C)[C@@H](CC(C)C)C(=O)N(C)[C@@H](CC(C)C)C(=O)N(C)[C@@H](C(C)C)C(=O)N1C` [DEBIO-025], the anti-HIV-1 activity [1] is given as “effective for the treatment of HIV-1”, the “inhibition of hepatitis C virus replication” value [2] is given as “potent and selective inhibition” and the “binding affinity for cyclophilin A” value [3] is given as “potent binding affinity”.
For `CCC1NC(=O)C(C(O)C(C)CC=CC#CBr)N(C)C(=O)C(C(C)C)N(C)C(=O)C(CC(C)C)N(C)C(=O)C(CC(C)C)N(C)C(=O)C(C)NC(=O)C(C)NC(=O)C(CC(C)C)N(C)C(=O)C(C(C)C)NC(=O)C(CC(C)C)N(C)C(=O)CN(C)C1=O` (centres unmarked) [Example 15, cyclosporin alkynyl bromide], the “IC50” value [4] was 8 ng/mL.
For `CC#CC[C@@H](C)[C@@H](O)[C@H]1C(=O)N[C@@H](CC)C(=O)N(C)CC(=O)N(C)[C@@H](CC(C)C)C(=O)N[C@@H](C(C)C)C(=O)N(C)[C@@H](CC(C)C)C(=O)N[C@@H](C)C(=O)N[C@H](C)C(=O)N(C)[C@@H](CC(C)C)C(=O)N(C)[C@@H](CC(C)C)C(=O)N(C)[C@@H](C(C)C)C(=O)N1C` [known cyclosporin alkyne], the “relative immunosuppressive activity compared to cyclosporin A” value ([5]; Rich et al., J. Med. Chem. 33:999-1009 (1990)) is listed as 10%.
With cyclosporin alkynyl iodide [Example 13] the “IC50” value [4] was 1 ng/mL.
For `C/C=C/C[C@@H](C)[C@@H](O)[C@H]1C(=O)N[C@@H](CC)C(=O)N(C)CC(=O)N(C)[C@@H]([C@@H](C)CC)C(=O)N[C@@H](C(C)C)C(=O)N(C)[C@@H](CC(C)C)C(=O)N[C@@H](C)C(=O)N[C@H](C)C(=O)N(C)[C@@H](CC(C)C)C(=O)N(C)[C@@H](CC(C)C)C(=O)N(C)[C@@H](C(C)C)C(=O)N1C` [SDZ NIM 811], the immunosuppressive activity ([5]; Mlynar et al. 1997, background) is given as “completely devoid of immunosuppressive activity; also recorded: none of the immunosuppressive activity”, the anti-HIV-1 activity [1] is given as “potent and selective anti-HIV-1 activity” and the inhibition of calcineurin [6] is given as “does not inhibit”.
For `CC[C@@H]1NC(=O)[C@H]([C@H](O)[C@H](C)C/C=C/C#CC2CC2)N(C)C(=O)[C@H](C(C)C)N(C)C(=O)[C@H](CC(C)C)N(C)C(=O)[C@H](CC(C)C)N(C)C(=O)[C@@H](C)NC(=O)[C@H](C)NC(=O)[C@H](CC(C)C)N(C)C(=O)[C@H](C(C)C)NC(=O)[C@H](CC(C)C)N(C)C(=O)CN(C)C1=O` [Example 33, cyclosporin cyclopropyl alkyne], the “potency in immunosuppression compared to cyclosporin A and ISATX247” value ([4]; FIG. 1 legend) was “enhanced or similar potency” and the “IC50” value [4] was 9 ng/mL (≈ 7.18 nM).
